Measurements as given in ChEMBL document CHEMBL1240454, “1,3-Dioxolane-based ligands incorporating a lactam or imide moiety: structure-affinity/activity relationship at alpha1-adrenoceptor subtypes and at 5-HT1A receptors” (Eur J Med Chem, 2010).

target: T1, Alpha-1D adrenergic receptor (Rattus norvegicus) (UniProt P23944); test: Antagonist activity at adrenergic Alpha-1D receptor in Wistar rat thoracic aorta assessed as inhibition of (-)-norepinephrine-induced vasocontraction treated 30 mins before (-)norepinephrine challenge; format: functional, tissue-based; settings: not given
T1 sequence (whole entry): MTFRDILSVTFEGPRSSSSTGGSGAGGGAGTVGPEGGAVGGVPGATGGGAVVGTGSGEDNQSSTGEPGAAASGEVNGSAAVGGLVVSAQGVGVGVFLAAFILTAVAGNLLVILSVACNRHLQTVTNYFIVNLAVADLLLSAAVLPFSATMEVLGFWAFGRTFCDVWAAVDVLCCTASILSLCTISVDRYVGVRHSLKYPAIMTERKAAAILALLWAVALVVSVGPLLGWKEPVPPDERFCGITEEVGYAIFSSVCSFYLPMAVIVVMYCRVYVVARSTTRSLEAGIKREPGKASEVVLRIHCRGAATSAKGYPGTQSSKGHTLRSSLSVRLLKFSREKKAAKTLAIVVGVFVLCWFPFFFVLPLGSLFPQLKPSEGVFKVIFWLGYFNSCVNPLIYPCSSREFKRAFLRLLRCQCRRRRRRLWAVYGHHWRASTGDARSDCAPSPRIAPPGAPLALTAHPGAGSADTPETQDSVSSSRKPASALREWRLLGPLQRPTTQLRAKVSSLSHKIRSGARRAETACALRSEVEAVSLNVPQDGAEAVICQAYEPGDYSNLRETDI

Structure (SMILES) | pKb
COc1ccccc1N1CCN(CC2OCC(c3ccccc3)(c3ccccc3)O2)CC1 (stereo not given) | 8.14
COc1ccccc1N1CCN(C[C@@H]2CO[C@](CN3CCCC3=O)(c3ccccc3)O2)CC1 (relative stereo) | 7.43
COc1ccccc1N1CCN(C[C@@H]2CO[C@@](CN3CCCCC3=O)(c3ccccc3)O2)CC1 (relative stereo) | 7.29

Further lines, results first:

pKb | Structure (SMILES)
6.74 | COc1ccccc1N1CCN(C[C@H]2CO[C@@](CN3CCCCC3=O)(c3ccccc3)O2)CC1
8.51 | COc1ccccc1N1CCN(C[C@@H]2CO[C@@](CN3C(=O)CC4(CCCC4)CC3=O)(c3ccccc3)O2)CC1 (relative stereo)
6.79 | COc1ccccc1N1CCN(C[C@H]2CO[C@](CN3CCCC3=O)(c3ccccc3)O2)CC1 (relative stereo)

species on record: Rattus norvegicus; test: Selectivity for adrenergic Alpha-1B receptor in Wistar rat spleen over adrenergic alpha1A receptor in Wistar rat prostatic vas deferens; format: tissue-based; settings: not given

Structure (SMILES) | Selectivity ratio
COc1ccccc1N1CCN(CC2OCC(c3ccccc3)(c3ccccc3)O2)CC1 (stereo not given) | 36
COc1ccccc1N1CCN(C[C@@H]2CO[C@](CN3CCCC3=O)(c3ccccc3)O2)CC1 (relative stereo) | 0.2
COc1ccccc1N1CCN(C[C@@H]2CO[C@@](CN3CCCCC3=O)(c3ccccc3)O2)CC1 (relative stereo) | 0.1

Now from value to compound:

Selectivity ratio | Structure (SMILES)
0.3 | COc1ccccc1N1CCN(C[C@H]2CO[C@@](CN3CCCCC3=O)(c3ccccc3)O2)CC1
0.7 | COc1ccccc1N1CCN(C[C@@H]2CO[C@@](CN3C(=O)CC4(CCCC4)CC3=O)(c3ccccc3)O2)CC1 (relative stereo)
0.5 | COc1ccccc1N1CCN(C[C@H]2CO[C@](CN3CCCC3=O)(c3ccccc3)O2)CC1 (relative stereo)

species on record: Rattus norvegicus; test: Selectivity for adrenergic alpha1A receptor in Wistar rat prostatic vas deferens over adrenergic Alpha-1D receptor in Wistar rat thoracic aorta; format: tissue-based; settings: not given

Structure (SMILES) | Selectivity ratio
COc1ccccc1N1CCN(CC2OCC(c3ccccc3)(c3ccccc3)O2)CC1 (stereo not given) | 0.8
COc1ccccc1N1CCN(C[C@H]2CO[C@@](CN3CCCCC3=O)(c3ccccc3)O2)CC1 | 0.3
COc1ccccc1N1CCN(C[C@@H]2CO[C@@](CN3C(=O)CC4(CCCC4)CC3=O)(c3ccccc3)O2)CC1 (relative stereo) | 17
COc1ccccc1N1CCN(C[C@H]2CO[C@](CN3CCCC3=O)(c3ccccc3)O2)CC1 (relative stereo) | 0.07
COc1ccccc1N1CCN(C[C@@H]2CO[C@](CN3CCCC3=O)(c3ccccc3)O2)CC1 (relative stereo) | 1
COc1ccccc1N1CCN(C[C@@H]2CO[C@@](CN3CCCCC3=O)(c3ccccc3)O2)CC1 (relative stereo) | 1

target: T2, 5-hydroxytryptamine receptor 1A (Homo sapiens) (UniProt P08908); test: Agonist activity at human cloned 5HT1A receptor expressed in human HeLa cells assessed as stimulation of [35S]GTPgammaS binding after 20 mins by liquid scintillation counting; format: functional, cell-based; settings: not given
T2 sequence (whole entry): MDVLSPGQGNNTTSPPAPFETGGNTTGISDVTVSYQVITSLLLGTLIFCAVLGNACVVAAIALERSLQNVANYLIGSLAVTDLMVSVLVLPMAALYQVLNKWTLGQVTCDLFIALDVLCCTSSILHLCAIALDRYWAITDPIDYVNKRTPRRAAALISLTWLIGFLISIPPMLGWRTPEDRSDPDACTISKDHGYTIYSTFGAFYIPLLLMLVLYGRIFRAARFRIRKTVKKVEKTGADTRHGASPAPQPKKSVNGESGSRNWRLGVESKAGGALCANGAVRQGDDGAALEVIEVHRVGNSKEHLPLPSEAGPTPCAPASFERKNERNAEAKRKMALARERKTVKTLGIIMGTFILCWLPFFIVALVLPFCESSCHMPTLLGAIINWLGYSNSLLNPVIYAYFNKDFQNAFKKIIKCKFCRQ

pD2 | Structure (SMILES)
8.3 | COc1ccccc1N1CCN(CC2OCC(c3ccccc3)(c3ccccc3)O2)CC1 (stereo not given)
7.98 | COc1ccccc1N1CCN(C[C@@H]2CO[C@@](CN3C(=O)CC4(CCCC4)CC3=O)(c3ccccc3)O2)CC1 (relative stereo)
7.14 | COc1ccccc1N1CCN(C[C@@H]2CO[C@](CN3CCCC3=O)(c3ccccc3)O2)CC1 (relative stereo)

target: T2, 5-hydroxytryptamine receptor 1A (Homo sapiens); test: Agonist activity at human cloned 5HT1A receptor expressed in human HeLa cells assessed as stimulation of [35S]GTPgammaS binding after 20 mins by liquid scintillation counting relative to maximal 5HT response; format: functional, cell-based; settings: not given

Emax [%] | Structure (SMILES)
16 | COc1ccccc1N1CCN(CC2OCC(c3ccccc3)(c3ccccc3)O2)CC1 (stereo not given)
60 | COc1ccccc1N1CCN(C[C@@H]2CO[C@@](CN3C(=O)CC4(CCCC4)CC3=O)(c3ccccc3)O2)CC1 (relative stereo)
34 | COc1ccccc1N1CCN(C[C@@H]2CO[C@](CN3CCCC3=O)(c3ccccc3)O2)CC1 (relative stereo)

target: T3, 5-hydroxytryptamine receptor 1A (Homo sapiens, UniProt P08908); test: Binding affinity to 5HT1A receptor; settings: not given
T3 sequence (P08908 whole entry): T2 sequence (whole entry)

Ki [nM] | Structure (SMILES)
15.1 | COc1ccccc1N1CCN(CC2OCC(c3ccccc3)(c3ccccc3)O2)CC1 (stereo not given)

tested on: not listed separately; test: Selectivity for adrenergic alpha1 receptor over 5HT1A receptor; settings: not given

Selectivity ratio | Structure (SMILES)
100 | COc1ccccc1N1CCN(CC2OCC(c3ccccc3)(c3ccccc3)O2)CC1 (stereo not given)

target: T4, Alpha-1B adrenergic receptor (Homo sapiens, UniProt P35368); settings: not given
T4 sequence (P35368 whole entry): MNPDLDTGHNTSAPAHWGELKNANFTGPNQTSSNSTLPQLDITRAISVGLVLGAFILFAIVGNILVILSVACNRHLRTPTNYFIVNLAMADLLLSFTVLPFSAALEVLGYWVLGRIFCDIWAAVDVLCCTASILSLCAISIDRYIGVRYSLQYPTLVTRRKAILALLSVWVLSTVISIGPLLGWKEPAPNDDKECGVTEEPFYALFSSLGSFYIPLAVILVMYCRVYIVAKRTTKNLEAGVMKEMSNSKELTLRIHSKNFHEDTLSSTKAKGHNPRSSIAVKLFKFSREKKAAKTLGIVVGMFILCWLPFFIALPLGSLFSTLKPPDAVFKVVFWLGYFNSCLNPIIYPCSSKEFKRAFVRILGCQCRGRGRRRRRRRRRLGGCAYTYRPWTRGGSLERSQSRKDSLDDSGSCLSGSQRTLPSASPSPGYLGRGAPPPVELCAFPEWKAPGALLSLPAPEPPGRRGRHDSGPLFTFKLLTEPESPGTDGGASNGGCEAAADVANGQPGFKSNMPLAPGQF

Structure (SMILES) | Ki [nM]
COc1ccccc1N1CCN(CC2OCC(c3ccccc3)(c3ccccc3)O2)CC1 (stereo not given) | 6.76
COc1ccccc1N1CCN(C[C@@H]2CO[C@](CN3CCCC3=O)(c3ccccc3)O2)CC1 (relative stereo) | 70.8
COc1ccccc1N1CCN(C[C@@H]2CO[C@@](CN3CCCCC3=O)(c3ccccc3)O2)CC1 (relative stereo) | 51.3

Other lines, results leading:

Ki [nM] | Structure (SMILES)
129 | COc1ccccc1N1CCN(C[C@H]2CO[C@@](CN3CCCCC3=O)(c3ccccc3)O2)CC1
10 | COc1ccccc1N1CCN(C[C@@H]2CO[C@@](CN3C(=O)CC4(CCCC4)CC3=O)(c3ccccc3)O2)CC1 (relative stereo)
174 | COc1ccccc1N1CCN(C[C@H]2CO[C@](CN3CCCC3=O)(c3ccccc3)O2)CC1 (relative stereo)

target: T2, 5-hydroxytryptamine receptor 1A (Homo sapiens); settings: HeLa

pKb | Structure (SMILES)
7.38 | COc1ccccc1N1CCN(C[C@H]2CO[C@@](CN3CCCCC3=O)(c3ccccc3)O2)CC1
7.16 | COc1ccccc1N1CCN(C[C@H]2CO[C@](CN3CCCC3=O)(c3ccccc3)O2)CC1 (relative stereo)
7.39 | COc1ccccc1N1CCN(C[C@@H]2CO[C@@](CN3CCCCC3=O)(c3ccccc3)O2)CC1 (relative stereo)
